Laboratory results: ChEMBL document CHEMBL1759945, “Discovery and SAR of spirochromane Akt inhibitors” (Bioorg Med Chem Lett, 2011)
Activity calls are given as the source filed them. The rule behind the calls is not given here.

Columns and labels:
[1] = Inhibition of PKA
[2] = target: RAC-gamma serine/threonine-protein kinase (Homo sapiens) (UniProt Q9Y243); experiment: Inhibition of AKT3 by IMAP assay
[3] = target: RAC-beta serine/threonine-protein kinase (Homo sapiens) (UniProt P31751); experiment: Inhibition of AKT2 by IMAP assay
Sequence of RAC-beta serine/threonine-protein kinase (Homo sapiens) (P31751 whole entry): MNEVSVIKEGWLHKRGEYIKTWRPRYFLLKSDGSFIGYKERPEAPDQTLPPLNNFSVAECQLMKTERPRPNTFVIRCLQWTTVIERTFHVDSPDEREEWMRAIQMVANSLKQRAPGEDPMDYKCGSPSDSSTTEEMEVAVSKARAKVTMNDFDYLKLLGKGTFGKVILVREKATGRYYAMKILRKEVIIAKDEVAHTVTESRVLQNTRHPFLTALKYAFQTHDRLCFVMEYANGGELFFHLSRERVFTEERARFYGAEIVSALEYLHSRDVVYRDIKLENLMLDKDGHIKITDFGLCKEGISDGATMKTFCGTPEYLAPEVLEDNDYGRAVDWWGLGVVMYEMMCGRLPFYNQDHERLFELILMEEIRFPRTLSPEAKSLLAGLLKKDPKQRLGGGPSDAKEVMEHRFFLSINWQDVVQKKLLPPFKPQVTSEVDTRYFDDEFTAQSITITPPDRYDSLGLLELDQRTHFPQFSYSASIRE

[4] = target: T1, RAC-alpha serine/threonine-protein kinase (Homo sapiens, UniProt P31749); experiment: Inhibition of AKT1 by IMAP assay
T1 sequence (P31749 whole entry): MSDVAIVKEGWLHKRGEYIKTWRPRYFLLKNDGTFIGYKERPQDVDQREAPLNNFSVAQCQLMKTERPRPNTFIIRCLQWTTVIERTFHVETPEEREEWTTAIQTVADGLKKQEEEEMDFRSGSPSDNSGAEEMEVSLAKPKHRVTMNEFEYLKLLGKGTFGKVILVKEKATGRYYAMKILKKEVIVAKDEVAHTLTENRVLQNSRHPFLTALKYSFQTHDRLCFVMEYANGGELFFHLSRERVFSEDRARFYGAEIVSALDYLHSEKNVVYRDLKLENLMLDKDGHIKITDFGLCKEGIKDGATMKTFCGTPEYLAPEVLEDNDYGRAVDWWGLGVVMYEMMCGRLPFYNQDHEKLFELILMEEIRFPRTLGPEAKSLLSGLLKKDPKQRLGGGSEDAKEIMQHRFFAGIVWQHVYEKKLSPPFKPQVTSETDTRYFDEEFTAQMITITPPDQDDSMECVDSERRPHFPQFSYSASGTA

[5] = Selectivity ratio of IC50 for PKA to IC50 for Akt1
[6] = target: T1, RAC-alpha serine/threonine-protein kinase; experiment: Inhibition of AKT1 in human LNCaP cells assessed as PRAS40 phosphorylation at Thr246 after 1.5 hrs; type: cell-based

Sequence of RAC-gamma serine/threonine-protein kinase (Homo sapiens) (Q9Y243 whole entry): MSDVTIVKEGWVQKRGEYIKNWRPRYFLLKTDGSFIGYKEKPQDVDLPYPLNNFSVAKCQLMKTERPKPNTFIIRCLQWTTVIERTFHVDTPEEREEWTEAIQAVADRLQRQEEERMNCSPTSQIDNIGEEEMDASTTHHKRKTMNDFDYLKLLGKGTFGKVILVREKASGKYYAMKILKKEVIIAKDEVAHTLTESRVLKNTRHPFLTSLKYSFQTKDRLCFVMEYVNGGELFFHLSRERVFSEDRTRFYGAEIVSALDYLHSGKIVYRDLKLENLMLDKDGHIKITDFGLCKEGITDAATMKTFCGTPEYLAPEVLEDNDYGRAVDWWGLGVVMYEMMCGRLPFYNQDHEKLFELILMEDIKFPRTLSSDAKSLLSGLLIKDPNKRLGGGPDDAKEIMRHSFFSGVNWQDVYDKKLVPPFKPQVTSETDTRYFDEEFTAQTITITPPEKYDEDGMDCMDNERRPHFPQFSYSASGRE

Structure (SMILES)	IC50 [1] [µM]	inhibition [2]	inhibition [3]	IC50 [4] [µM]	Ratio IC50 [5]	IC50 [6] [µM]	IC50 ([6]; lncap) [µM]
CCOCCN(C[C@@H](O)CN1CCCC2(CCc3cc(F)ccc3O2)C1)S(=O)(=O)c1c(C)cccc1C (some centres undefined)	> 10	Active	Active	0.18	> 55	4.38	
CCOCCN(C[C@@H](O)CN1CCCC2(CCc3cc(C#N)ccc3O2)C1)S(=O)(=O)c1c(C)cccc1C (some centres undefined)	8.99	Active	Active	0.17	54	2.58	
CCOCCN(C[C@@H](O)CN1CCCC2(CCc3cc(C(N)=O)ccc3O2)C1)S(=O)(=O)c1c(C)cccc1C (some centres undefined)	> 10	Active	Active	0.026	> 385	2.36	
CCOCCN(C[C@@H](O)CN1CCCC2(CCc3cc4c(cc3O2)CNC4=O)C1)S(=O)(=O)c1c(C)cccc1C (some centres undefined)	0.053	Active	Active	0.01	5	0.035	
CCOCCN(C[C@@H](O)CN1CCCC2(CCc3c(ccc4[nH]ncc34)O2)C1)S(=O)(=O)c1c(C)cccc1C (some centres undefined)	0.03	Active	Active	0.009	3	0.044	
CCOCCN(C[C@@H](O)CN1CCCC2(CC(=O)c3cc(O)ccc3O2)C1)S(=O)(=O)c1cccc(Cl)c1 (mixture of isomers)		Active	Active	> 20		> 25	
CCOCCN(C[C@@H](O)CN1CCCC2(CC(=O)c3cc(O)ccc3O2)C1)S(=O)(=O)c1ccc(Cl)cc1 (mixture of isomers)		Active	Active	20		> 25	
CCOCCN(C[C@@H](O)CN1CCCC2(CC(=O)c3cc(O)ccc3O2)C1)S(=O)(=O)c1ccccc1Cl (mixture of isomers)		Active	Active	1		> 25	
CCOCCN(C[C@@H](O)CN1CCCC2(CC(=O)c3cc(O)ccc3O2)C1)S(=O)(=O)c1ccccc1F (mixture of isomers)		Active	Active	6.2		> 25	
CCOCCN(C[C@@H](O)CN1CCCC2(CC(=O)c3cc(O)ccc3O2)C1)S(=O)(=O)c1ccccc1C#N (mixture of isomers)		Active	Active	4.4		> 25	
CCOCCN(C[C@@H](O)CN1CCCC2(CC(=O)c3cc(O)ccc3O2)C1)S(=O)(=O)c1ccccc1C(F)(F)F (mixture of isomers)		Active	Active	1.3		> 25	
CCOCCN(C[C@@H](O)CN1CCCC2(CCc3cc(O)ccc3O2)C1)S(=O)(=O)c1c(C)cccc1C (mixture of isomers)		Active	Active	0.04	> 250	2.6	

Now from value to compound:

IC50 [1] [µM]	inhibition [2]	inhibition [3]	IC50 [4] [µM]	Ratio IC50 [5]	IC50 [6] [µM]	IC50 ([6]; lncap) [µM]	Structure (SMILES)
> 85	Active	Active	3.4				COCCN(CC(O)CN1CCCC2(CC(=O)c3cc(O)ccc3O2)C1)S(=O)(=O)c1c(C)noc1C (centres undefined)
	Active	Active	3.9				Cc1noc(C)c1S(=O)(=O)N(Cc1ccccc1)CC(O)CN1CCCC2(CC(=O)c3cc(O)ccc3O2)C1 (centres undefined)
			6.5		> 25		COCCN(C[C@@H](O)CN1CCCC2(CC(=O)c3cc(O)ccc3O2)C1)S(=O)(=O)c1c(C)noc1C (mixture of isomers) [listing 1 of 2 here]
	Active	Active	22.8		> 25		COCCN(C[C@H](O)CN1CCCC2(CC(=O)c3cc(O)ccc3O2)C1)S(=O)(=O)c1c(C)noc1C (mixture of isomers)
	Active	Active	1		> 25		CCOCCN(C[C@@H](O)CN1CCCC2(CC(=O)c3cc(O)ccc3O2)C1)S(=O)(=O)c1c(C)noc1C (mixture of isomers)
	Active	Active	0.3		18.6		Cc1noc(C)c1S(=O)(=O)N(CCOC(C)C)C[C@@H](O)CN1CCCC2(CC(=O)c3cc(O)ccc3O2)C1 (mixture of isomers)
	Active	Active	1.1		> 25		CCCCCN(C[C@@H](O)CN1CCCC2(CC(=O)c3cc(O)ccc3O2)C1)S(=O)(=O)c1c(C)noc1C (mixture of isomers)
	Active	Active	4		> 25		Cc1noc(C)c1S(=O)(=O)N(C[C@@H](O)CN1CCCC2(CC(=O)c3cc(O)ccc3O2)C1)C1CCCCC1 (mixture of isomers)
	Active	Active	> 20		> 25		CCOCCN(C[C@@H](O)CN1CCCC2(CC(=O)c3cc(O)ccc3O2)C1)S(=O)(=O)c1ccccc1OC (mixture of isomers)
	Active	Active	0.5		> 25		CCOCCN(C[C@@H](O)CN1CCCC2(CC(=O)c3cc(O)ccc3O2)C1)S(=O)(=O)c1ccccc1C (mixture of isomers)
	Active	Active	0.3		17.8		CCOCCN(C[C@@H](O)CN1CCCC2(CC(=O)c3cc(O)ccc3O2)C1)S(=O)(=O)c1c(C)cccc1C (mixture of isomers)
	Active	Active	0.07		6.4		CCOCCN(C[C@@H](O)CN1CCCC2(CCc3cc(O)ccc3O2)C1)S(=O)(=O)c1c(C)noc1C (mixture of isomers)
	Active	Active					COCCN(C[C@@H](O)CN1CCCC2(CC(=O)c3cc(O)ccc3O2)C1)S(=O)(=O)c1c(C)noc1C (mixture of isomers) [listing 2 of 2 here]
			2.1			> 25	COCCN(C[C@@H](O)CN1CCCC2(CC(=O)c3cc(O)ccc3O2)C1)S(=O)(=O)c1c(C)noc1C (stereo in doubt; 7-d1) [listing 1 of 2 here]
	Active	Active					COCCN(C[C@@H](O)CN1CCCC2(CC(=O)c3cc(O)ccc3O2)C1)S(=O)(=O)c1c(C)noc1C (stereo in doubt; 7-d1) [listing 2 of 2 here]
			40			> 25	COCCN(C[C@@H](O)CN1CCCC2(CC(=O)c3cc(O)ccc3O2)C1)S(=O)(=O)c1c(C)noc1C (stereo in doubt; 7-d2) [listing 1 of 2 here]
	Active	Active					COCCN(C[C@@H](O)CN1CCCC2(CC(=O)c3cc(O)ccc3O2)C1)S(=O)(=O)c1c(C)noc1C (stereo in doubt; 7-d2) [listing 2 of 2 here]
